Results on four compounds are retold here after patent US20050197343A1, “Utilization of heteroarene carboxamide as dopamine-d3 ligands for the treatment of cns diseases” (priority 2002, published 2005).

One assay concerns the target α1 receptors. The experiment in a line: competitive experiment with the α1 selective radio ligand [3H]Prazosin. As to conditions: read-out: Ki values α1 (footnote d); pα1; competitive experiment with [3H]Prazosin.
Assay [1] addresses T1, D3 receptor (Homo sapiens, UniProt P35462). Kind of assay: radio ligand binding assay, CHO cell membrane homogenates, [3H]Spiperon, D3. Also noted: expressed in transfected cells; host or cells: CHO cells (membrane homogenates). The note with it: for Ki: hD3, average of 2-9 experiments in triplicate, read-out: Ki-values D3; for D3 selectivity D2long/D3 / D3 selectivity D2short/D3 / D3 selectivity D4.4/D3: ratio of Ki values. As to the method:
(§1) The biological activities of the compounds of the invention were determined in radio ligand binding assays.

Assay [2] has as its target T1, D3 receptor. The experiment in a line: mitogenesis assay (intrinsic activity). The class given is cell-based. The text has this:
D3 ligands may show agonistic, antagonistic or partial-agonistic activity on the D3 receptor. The respective intrinsic activities of the compounds of the invention may be measured in mitogenesis assays as described in literature (Hübner, H. et al. J. Med. Chem. 2000, 43, 4563-4569, and Löber, S. Bioorg. Med. Chem. Lett. 2002, 12.17, 2377-2380). Depending on the pathophysiology of the underlying disease, a stronger agonistic, stronger antagonistic or partial-agonistic activity may be desirable. The present invention therefore permits an excellent fine-tuning of the desired activity.
Tests to determine the intrinsic activity of the compounds of the examples were carried out in a mitogenesis assay as described in literature (Hübner, H. et al. J. Med. Chem. 2000, 43, 4563-4569; Löber, S. Bioorg. Med. Chem. Lett. 2002, 12.17, 2377-2380).

The next assay deals with T2, human D2long receptor (Homo sapiens, UniProt P14416).
T2 construct: expressed in transfected cells; host or cells: CHO cells (membrane homogenates)
The experiment in a line: radio ligand binding assay, CHO cell membrane homogenates, [3H]Spiperon, D2long. The note with it: hD2long; average of 2-9 experiments in triplicate. As to the method:
as §1

A further assay concerns the target T3, human D2short receptor (Homo sapiens, UniProt P14416).
T3 construct: expressed in transfected cells; host or cells: CHO cells (membrane homogenates)
Kind of assay: radio ligand binding assay, CHO cell membrane homogenates, [3H]Spiperon, D2short. The note with it: hD2short; average of 2-9 experiments in triplicate. The procedure:
as §1

A further assay deals with T4, human D4.4 receptor (Homo sapiens, UniProt P21917).
T4 construct: expressed in transfected cells; host or cells: CHO cells (membrane homogenates)
T4 sequence (P21917 1-419): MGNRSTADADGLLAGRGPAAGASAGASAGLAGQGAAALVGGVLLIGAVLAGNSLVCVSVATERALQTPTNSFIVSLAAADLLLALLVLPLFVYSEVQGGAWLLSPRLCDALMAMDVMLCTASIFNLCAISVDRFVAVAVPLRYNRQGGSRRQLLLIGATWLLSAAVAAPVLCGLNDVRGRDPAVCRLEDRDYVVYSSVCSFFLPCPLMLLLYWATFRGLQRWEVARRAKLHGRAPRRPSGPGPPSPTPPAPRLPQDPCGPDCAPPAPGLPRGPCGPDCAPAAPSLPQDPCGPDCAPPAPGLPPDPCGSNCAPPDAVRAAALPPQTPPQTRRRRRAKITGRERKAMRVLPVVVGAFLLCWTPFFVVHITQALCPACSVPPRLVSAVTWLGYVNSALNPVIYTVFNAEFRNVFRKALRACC
The experiment in a line: radio ligand binding assay, CHO cell membrane homogenates, [3H]Spiperon, D4.4. The note with it: hD4.4; average of 2-9 experiments in triplicate. The procedure:
as §1

The target in another assay is T5, serotonin receptor 5-HT2 (Sus scrofa, UniProt P50129).
T5 construct: cortex membrane preparations of a pig; from tissue; host or cells: pig cortex
Kind of assay: radio ligand binding, pig cortex membrane preparations, [3H]Ketanserin with 10 μM Prazosin. As to conditions: p5-HT2; simultaneous incubation with 10 μM of Prazosin.

Assay [3] has as its target T6, serotonin receptor 5-HT1A (Sus scrofa, UniProt A0A4X1UTF5).
T6 sequence (A0A4X1UTF5 1-422): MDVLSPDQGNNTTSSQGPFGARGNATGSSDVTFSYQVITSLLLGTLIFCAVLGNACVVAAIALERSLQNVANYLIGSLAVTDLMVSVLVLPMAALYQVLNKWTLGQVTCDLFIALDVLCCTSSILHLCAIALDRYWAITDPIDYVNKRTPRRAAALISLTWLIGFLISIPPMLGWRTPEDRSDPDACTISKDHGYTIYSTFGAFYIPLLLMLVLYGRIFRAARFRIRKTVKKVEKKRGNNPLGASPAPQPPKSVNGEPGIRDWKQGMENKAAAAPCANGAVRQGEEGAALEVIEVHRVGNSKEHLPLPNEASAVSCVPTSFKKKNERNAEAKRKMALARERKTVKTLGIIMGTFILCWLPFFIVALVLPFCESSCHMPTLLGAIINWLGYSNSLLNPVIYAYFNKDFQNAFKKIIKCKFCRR
The experiment in a line: radio ligand binding, pig cortex membrane preparations, [3H]8-OH-DPAT. The note with it: read-out: Ki values 5-HT1A; p5-HT1A; [3H]8-OH-DPAT; average of 2 to 6 experiments.

Another assay deals with T7, D1 receptor (Sus scrofa, UniProt P50130).
T7 construct: native membrane homogenates obtained from the striatum of a pig; from tissue; host or cells: pig striatum
The experiment in a line: radio ligand binding assay, D1 receptor, pig striatum membrane homogenates, [3H]SCH 23390. The note with it: pD1; average of 2-9 experiments in triplicate. The procedure: as §1

T3 sequence (P14416 1-414 isoform P14416-2): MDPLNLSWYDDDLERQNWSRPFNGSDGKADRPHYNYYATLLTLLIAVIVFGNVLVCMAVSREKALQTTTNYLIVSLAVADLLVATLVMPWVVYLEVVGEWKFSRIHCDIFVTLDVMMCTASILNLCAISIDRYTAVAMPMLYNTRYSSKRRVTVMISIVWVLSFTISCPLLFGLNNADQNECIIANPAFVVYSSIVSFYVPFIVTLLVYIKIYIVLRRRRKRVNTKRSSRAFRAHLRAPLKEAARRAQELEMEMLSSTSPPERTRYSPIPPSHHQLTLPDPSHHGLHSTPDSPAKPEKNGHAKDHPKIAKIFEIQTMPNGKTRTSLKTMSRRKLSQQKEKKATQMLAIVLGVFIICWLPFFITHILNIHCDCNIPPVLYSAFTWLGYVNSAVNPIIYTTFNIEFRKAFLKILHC
T5 sequence (P50129 whole entry): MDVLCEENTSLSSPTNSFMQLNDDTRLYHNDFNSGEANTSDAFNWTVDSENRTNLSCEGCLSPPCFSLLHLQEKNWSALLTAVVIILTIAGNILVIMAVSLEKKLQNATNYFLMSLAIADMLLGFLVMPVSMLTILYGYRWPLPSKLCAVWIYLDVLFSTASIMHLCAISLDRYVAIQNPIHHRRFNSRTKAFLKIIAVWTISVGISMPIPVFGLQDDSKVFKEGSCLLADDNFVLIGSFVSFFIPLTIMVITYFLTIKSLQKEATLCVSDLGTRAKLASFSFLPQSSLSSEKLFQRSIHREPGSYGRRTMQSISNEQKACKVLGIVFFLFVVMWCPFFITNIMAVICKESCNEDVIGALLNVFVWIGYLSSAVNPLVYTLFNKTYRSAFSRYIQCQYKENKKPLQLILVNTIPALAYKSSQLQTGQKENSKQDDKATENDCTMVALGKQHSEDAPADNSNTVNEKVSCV
T1 sequence (P35462 whole entry): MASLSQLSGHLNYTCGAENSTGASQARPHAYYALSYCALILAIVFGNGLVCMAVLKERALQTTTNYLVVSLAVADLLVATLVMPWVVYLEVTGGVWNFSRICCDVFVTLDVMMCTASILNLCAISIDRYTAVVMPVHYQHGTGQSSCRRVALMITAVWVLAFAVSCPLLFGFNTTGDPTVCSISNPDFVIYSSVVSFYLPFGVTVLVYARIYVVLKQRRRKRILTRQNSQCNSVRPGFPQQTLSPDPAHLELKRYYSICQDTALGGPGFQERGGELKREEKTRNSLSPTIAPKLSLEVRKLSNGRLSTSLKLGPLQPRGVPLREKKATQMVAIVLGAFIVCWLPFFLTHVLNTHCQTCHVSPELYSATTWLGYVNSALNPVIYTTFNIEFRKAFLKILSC
T7 sequence (P50130 whole entry): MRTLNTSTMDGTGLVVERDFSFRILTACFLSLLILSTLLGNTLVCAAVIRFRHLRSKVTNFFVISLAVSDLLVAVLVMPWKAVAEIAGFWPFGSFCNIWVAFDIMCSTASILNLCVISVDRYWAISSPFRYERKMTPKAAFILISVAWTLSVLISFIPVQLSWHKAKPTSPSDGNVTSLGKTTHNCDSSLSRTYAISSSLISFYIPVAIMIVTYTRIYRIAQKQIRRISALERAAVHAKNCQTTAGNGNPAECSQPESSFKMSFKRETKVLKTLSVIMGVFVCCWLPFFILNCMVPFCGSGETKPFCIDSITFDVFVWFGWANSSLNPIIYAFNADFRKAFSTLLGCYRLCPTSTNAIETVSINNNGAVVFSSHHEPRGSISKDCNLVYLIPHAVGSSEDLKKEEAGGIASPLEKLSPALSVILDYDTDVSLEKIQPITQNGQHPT
T2 sequence (P14416 whole entry): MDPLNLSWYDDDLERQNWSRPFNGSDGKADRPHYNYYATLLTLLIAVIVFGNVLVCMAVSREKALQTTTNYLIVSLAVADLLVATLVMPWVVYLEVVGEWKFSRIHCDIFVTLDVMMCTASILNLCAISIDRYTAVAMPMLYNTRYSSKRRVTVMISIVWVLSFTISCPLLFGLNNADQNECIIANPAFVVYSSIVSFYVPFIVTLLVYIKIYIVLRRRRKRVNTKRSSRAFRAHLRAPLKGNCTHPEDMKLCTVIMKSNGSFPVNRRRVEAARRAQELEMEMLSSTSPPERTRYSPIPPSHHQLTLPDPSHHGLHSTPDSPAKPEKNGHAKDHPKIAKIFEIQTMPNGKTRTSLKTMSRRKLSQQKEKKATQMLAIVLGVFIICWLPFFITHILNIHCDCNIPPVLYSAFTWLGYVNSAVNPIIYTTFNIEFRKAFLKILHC

One may read the Ki as the equilibrium dissociation constant of an inhibitor or competing ligand from its target. What is called EC50 is the concentration giving half of the maximal effect. Take `COc1ccccc1N1CCN(CCCCNC(=O)c2cc3ccccc3s2)CC1` [Example 1, N-4-(4-(2-methoxyphenyl)piperazine-1-yl)butyl-2-benzo[b]thiophenylcarbamide]: the inhibition constant Ki at α1 receptors is 6.4 nM; at D3 receptor [1], 0.23 to 0.57 nM. Further, at D3 receptor [2] (curve calculation of the concentration-activity test), the EC50 is 0.38 nM. For the same compound, on D3 receptor [2] (maximum triggered by the full agonist Quinpirol as reference), the “partial agonistic activity, % of the maximum receptor stimulation” value was 49%.
For `COc1ccccc1N1CCN(CCCCNC(=O)c2cc3cc(Br)ccc3o2)CC1` [Example 5, N-4-(4-(2-methoxyphenyl)piperazine-1-yl)butyl-5-brom-2-benzo[b]furanylcarbamide], the Ki was determined as 96 nM at human D2long receptor; 61 nM on human D2short receptor; 17 nM on human D4.4 receptor; 5.3 nM on α1 receptors; 0.69 nM on D3 receptor [1]; 140 nM at serotonin receptor 5-HT2. Further, the Ki in assay [3] was determined as 68 nM; at D1 receptor, 590 nM. Also, on D3 receptor [1], the “D3 selectivity D2long/D3” value was 140. Also, on D3 receptor [1], the “D3 selectivity D2short/D3” value is recorded as 88. In addition, the “D3 selectivity D4.4/D3” value at D3 receptor [1] is given as 25.
Take `O=C(NCCCCN1CCN(c2cccc(Cl)c2Cl)CC1)c1cc2cc(Br)ccc2o1` [Example 6, N-4-(4-(2,3-dichlorophenyl)piperazine-1-yl)butyl-5-bromo-2-benzo[b]furanylcarbarnide]: the Ki on human D2long receptor is 10000 nM; at human D2short receptor, 4800 nM; at human D4.4 receptor, 3100 nM; on α1 receptors, 1300 nM; on D3 receptor [1], 3.4 nM; at serotonin receptor 5-HT2, 540 nM. Besides, the Ki in [3] was 2500 nM; at D1 receptor, 2100 nM. The “D3 affinity (in words)” value on D3 receptor [1] is “subnanomolar affinity”. Moreover, on D3 receptor [1], the “D3 selectivity D2long/D3” value is given as 2900. Further, the “D3 selectivity D2short/D3” value on D3 receptor [1] worked out at 1400. Moreover, the “D3 selectivity D4.4/D3” value on D3 receptor [1] came out at 910.
`O=C(NCCCCN1CCN(c2cccc(Cl)c2Cl)CC1)c1cc2ccccc2[te]1` [Example 9, N-4-(4-(2,3-dichlorophenyl)piperazine-1-yl)butyl-2-benzo[b]tellurophenylcarbamide]: the Ki turned out to be 91 nM on human D2long receptor; 48 nM on human D2short receptor; 150 nM on human D4.4 receptor; 100 nM on α1 receptors; 0.55 nM at D3 receptor [1]; 730 nM at serotonin receptor 5-HT2. The results for the Ki (in [3]; on D1 receptor) were 130 nM and 1400 nM, respectively. Moreover, the “D3 selectivity D2long/D3” value at D3 receptor [1] amounted to 170. The “D3 selectivity D2short/D3” value on D3 receptor [1] is 87. The “D3 selectivity D4.4/D3” value at D3 receptor [1] is listed as 270.
